Laboratory results from US20230348442A1, “GALECTIN-3 INHIBITING 2-HYDROXYCYCLOALKANE-1-CARBAMOYL DERIVATIVES” (Idorsia Pharmaceuticals Ltd, priority 2020, published 2023).

Target: human Gal-3 (hGal-3) (Homo sapiens (Human), UniProt P17931)
Test: competitive binding assay: binding of biotinylated hGal-3 to microplate-adsorbed asialofetuin (ASF), spectrophotometric
Settings: Activity on hGal-3; mean values of several measurements
Outline: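 Compounds diluted in DMSO competed with biotinylated hGal-3 or hGal-1 (300-1000 ng/mL) for binding to plate-adsorbed asialofetuin for 3 h at 4° C. Bound galectin was detected with streptavidin-peroxidase (80 ng/mL, 1 h, 4° C) and ABTS substrate; IC50 reported as mean of several measurements.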

human Gal-3 (hGal-3), sequence (P17931 whole entry): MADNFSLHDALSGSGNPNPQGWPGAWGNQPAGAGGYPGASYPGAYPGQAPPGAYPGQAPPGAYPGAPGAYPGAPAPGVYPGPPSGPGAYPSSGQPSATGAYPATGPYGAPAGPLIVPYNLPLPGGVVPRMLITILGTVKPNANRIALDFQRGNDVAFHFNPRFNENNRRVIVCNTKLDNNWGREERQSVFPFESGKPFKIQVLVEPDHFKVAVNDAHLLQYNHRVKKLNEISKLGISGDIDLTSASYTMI

Compound	IC50 [nM]
CO[C@@H]1[C@@H](n2cc(-c3ccc(Cl)c(F)c3F)nn2)[C@@H](O)[C@@H](CO)O[C@H]1C(=O)N(c1cc(Cl)cc(C#N)c1)[C@H]1CCC[C@@H]1O [Example 1.14.4, (2R,3R,4S,5R,6R)-4-(4-(4-chloro-2,3-difluorophenyl)-1H-1,2,3-triazol-1-yl)-N-(3-chloro-5-cyanophenyl)-5-hydroxy-N-((1S,2S)-2-hydroxycyclopentyl)-6-(hydroxymethyl)-3-methoxytetrahydro-2H-pyran-2-carboxamide]	12.5
CO[C@@H]1[C@@H](n2cc(-c3ccc(Cl)c(F)c3F)nn2)[C@@H](O)[C@@H](CO)O[C@H]1C(=O)N(c1cc(Cl)cc(C#N)c1)[C@@H]1CCC[C@H]1O [Example 1.14.4R, (2R,3R,4S,5R,6R)-4-(4-(4-chloro-2,3-difluorophenyl)-1H-1,2,3-triazol-1-yl)-N-(3-chloro-5-cyanophenyl)-5-hydroxy-N-((1R,2R)-2-hydroxycyclopentyl)-6-(hydroxymethyl)-3-methoxytetrahydro-2H-pyran-2-carboxamide]	89.8
CO[C@@H]1[C@@H](n2cc(-c3ccc(Cl)c(F)c3F)nn2)[C@@H](O)[C@@H](CO)O[C@H]1C(=O)N(c1cc(Br)cc(C#N)c1)[C@H]1CCC[C@@H]1O [Example 1.14.5, (2R,3R,4S,5R,6R)-N-(3-bromo-5-cyanophenyl)-4-(4-(4-chloro-2,3-difluorophenyl)-1H-1,2,3-triazol-1-yl)-5-hydroxy-N-((1S,2S)-2-hydroxycyclopentyl)-6-(hydroxymethyl)-3-methoxytetrahydro-2H-pyran-2-carboxamide]	17.4
CO[C@@H]1[C@@H](n2cc(-c3ccc(Cl)c(F)c3F)nn2)[C@@H](O)[C@@H](CO)O[C@H]1C(=O)N(c1cc(Br)cc(C#N)c1)[C@@H]1CCC[C@H]1O [Example 1.14.5R, (2R,3R,4S,5R,6R)-N-(3-bromo-5-cyanophenyl)-4-(4-(4-chloro-2,3-difluorophenyl)-1H-1,2,3-triazol-1-yl)-5-hydroxy-N-((1R,2R)-2-hydroxycyclopentyl)-6-(hydroxymethyl)-3-methoxytetrahydro-2H-pyran-2-carboxamide]	25.5
CO[C@@H]1[C@@H](n2cc(-c3cccc(F)c3)nn2)[C@@H](O)[C@@H](CO)O[C@H]1C(=O)N(c1cc(Cl)cc(C#N)c1)[C@H]1CCC[C@@H]1O [Example 1.15.4, (2R,3R,4S,5R,6R)-N-(3-chloro-5-cyanophenyl)-4-(4-(3-fluorophenyl)-1H-1,2,3-triazol-1-yl)-5-hydroxy-N-((1S,2S)-2-hydroxycyclopentyl)-6-(hydroxymethyl)-3-methoxytetrahydro-2H-pyran-2-carboxamide]	54
CO[C@@H]1[C@@H](n2cc(-c3cccc(F)c3)nn2)[C@@H](O)[C@@H](CO)O[C@H]1C(=O)N(c1cc(Cl)cc(C#N)c1)[C@@H]1CCC[C@H]1O [Example 1.15.4R, (2R,3R,4S,5R,6R)-N-(3-chloro-5-cyanophenyl)-4-(4-(3-fluorophenyl)-1H-1,2,3-triazol-1-yl)-5-hydroxy-N-((1R,2R)-2-hydroxycyclopentyl)-6-(hydroxymethyl)-3-methoxytetrahydro-2H-pyran-2-carboxamide]	838
CO[C@@H]1[C@@H](n2cc(-c3cccc(F)c3)nn2)[C@@H](O)[C@@H](CO)O[C@H]1C(=O)N(c1cc(Br)cc(C#N)c1)[C@H]1CCC[C@@H]1O [Example 1.15.5, (2R,3R,4S,5R,6R)-N-(3-bromo-5-cyanophenyl)-4-(4-(3-fluorophenyl)-1H-1,2,3-triazol-1-yl)-5-hydroxy-N-((1S,2S)-2-hydroxycyclopentyl)-6-(hydroxymethyl)-3-methoxytetrahydro-2H-pyran-2-carboxamide]	66
CO[C@@H]1[C@@H](n2cc(-c3cccc(F)c3)nn2)[C@@H](O)[C@@H](CO)O[C@H]1C(=O)N(c1cc(Br)cc(C#N)c1)[C@@H]1CCC[C@H]1O [Example 1.15.5R, (2R,3R,4S,5R,6R)-N-(3-bromo-5-cyanophenyl)-4-(4-(3-fluorophenyl)-1H-1,2,3-triazol-1-yl)-5-hydroxy-N-((1R,2R)-2-hydroxycyclopentyl)-6-(hydroxymethyl)-3-methoxytetrahydro-2H-pyran-2-carboxamide]	612
CO[C@@H]1[C@@H](n2cc(-c3ccc(C#N)c(F)c3)nn2)[C@@H](O)[C@@H](CO)O[C@H]1C(=O)N(c1cc(Cl)cc(C#N)c1)[C@H]1CCC[C@@H]1O [Example 1.16.4, (2R,3R,4S,5R,6R)-N-(3-chloro-5-cyanophenyl)-4-(4-(4-cyano-3-fluorophenyl)-1H-1,2,3-triazol-1-yl)-5-hydroxy-N-((1S,2S)-2-hydroxycyclopentyl)-6-(hydroxymethyl)-3-methoxytetrahydro-2H-pyran-2-carboxamide]	102
CO[C@@H]1[C@@H](n2cc(-c3ccc(C#N)c(F)c3)nn2)[C@@H](O)[C@@H](CO)O[C@H]1C(=O)N(c1cc(Cl)cc(C#N)c1)[C@@H]1CCC[C@H]1O [Example 1.16.4R, (2R,3R,4S,5R,6R)-N-(3-chloro-5-cyanophenyl)-4-(4-(4-cyano-3-fluorophenyl)-1H-1,2,3-triazol-1-yl)-5-hydroxy-N-((1R,2R)-2-hydroxycyclopentyl)-6-(hydroxymethyl)-3-methoxytetrahydro-2H-pyran-2-carboxamide]	978
CO[C@@H]1[C@@H](n2cc(-c3ccc(C#N)c(F)c3)nn2)[C@@H](O)[C@@H](CO)O[C@H]1C(=O)N(c1cc(Br)cc(C#N)c1)[C@H]1CCC[C@@H]1O [Example 1.16.5, (2R,3R,4S,5R,6R)-N-(3-bromo-5-cyanophenyl)-4-(4-(4-cyano-3-fluorophenyl)-1H-1,2,3-triazol-1-yl)-5-hydroxy-N-((1S,2S)-2-hydroxycyclopentyl)-6-(hydroxymethyl)-3-methoxytetrahydro-2H-pyran-2-carboxamide]	62
CO[C@@H]1[C@@H](n2cc(-c3ccc(C#N)c(F)c3)nn2)[C@@H](O)[C@@H](CO)O[C@H]1C(=O)N(c1cc(Br)cc(C#N)c1)[C@@H]1CCC[C@H]1O [Example 1.16.5R, (2R,3R,4S,5R,6R)-N-(3-bromo-5-cyanophenyl)-4-(4-(4-cyano-3-fluorophenyl)-1H-1,2,3-triazol-1-yl)-5-hydroxy-N-((1R,2R)-2-hydroxycyclopentyl)-6-(hydroxymethyl)-3-methoxytetrahydro-2H-pyran-2-carboxamide]	729
CO[C@@H]1[C@@H](n2cc(-c3ccc(C#N)c(F)c3)nn2)[C@@H](O)[C@@H](CO)O[C@H]1C(=O)N(c1cc(C)cc(C#N)c1)[C@H]1CCC[C@@H]1O [Example 1.16.8, (2R,3R,4S,5R,6R)-4-(4-(4-cyano-3-fluorophenyl)-1H-1,2,3-triazol-1-yl)-N-(3-cyano-5-methylphenyl)-5-hydroxy-N-((1S,2S)-2-hydroxycyclopentyl)-6-(hydroxymethyl)-3-methoxytetrahydro-2H-pyran-2-carboxamide]	163
CO[C@@H]1[C@@H](n2cc(-c3ccc(C#N)c(F)c3)nn2)[C@@H](O)[C@@H](CO)O[C@H]1C(=O)N(c1cc(C)cc(C#N)c1)[C@@H]1CCC[C@H]1O [Example 1.16.8R, (2R,3R,4S,5R,6R)-4-(4-(4-cyano-3-fluorophenyl)-1H-1,2,3-triazol-1-yl)-N-(3-cyano-5-methylphenyl)-5-hydroxy-N-((1R,2R)-2-hydroxycyclopentyl)-6-(hydroxymethyl)-3-methoxytetrahydro-2H-pyran-2-carboxamide]	1260
